Source: patent US20110212853A1, “NOVEL DIAGNOSTIC METHOD” (PROBIODRUG AG, priority 2010, published 2011)

Key:
[1] = biological target: recombinant human QC (Homo sapiens, UniProt Q16769); test: Chemotactic potency of human MCP-1 in absence or presence of a QC-inhibitor (QC-mediated pGlu formation, then DP4 cleavage); assay type: biochemical; details: 10 μM inhibitor, FIG. 12
Protocol: Recombinant human MCP-1(1-76) (SEQ ID NO: 1) starting with an N-terminal glutamine (Peprotech) was dissolved in 25 mM Tris/HCl pH 7.6 in a concentration of 10 μg/ml. The MCP-1 solution was either pre-incubated with recombinant human QC (0.0006 mg/ml) for 3 h at 30° C. and subsequently incubated with recombinant human DP4 (0.0012 mg/ml) at 30° C. or incubated with DP4 without prior QC application. In addition, the incubation of Gln^1-MCP-1 with recombinant human QC was carried out in the presence of 10 μM of 1-(3-(1H-imidazol-1-yl)propyl)-3-(3,4-dimethoxyphenyl)thiourea hydrochloride. Resulting DP4 cleavage products were analyzed using Maldi-TOF mass spectrometry after 0 min, 15 min, 30 min, 1 h, 2 h and 4 h.
The chemotaxis assay was performed using 24 well TransWell plates with a pore size of 5 μm (Corning). THP-1 cells were suspended in RPMI1640 in a concentration of 1*10^6 cells/100 μl and applied in 100 μl aliquots to the upper chamber. Cells were allowed to migrate towards the chemoattractant for 2 h at 37° C. […] Afterwards, cells migrated to the lower chamber were counted using a cell counter system (Schärfe System). The chemotactic index was calculated by dividing cells migrated to the stimulus from cells migrated to the negative control. […]

[2] = tested on: A549 cells; test: hMCP-1 N1pE/hMCP-1 ratio by ELISA in TNFα+IL1β stimulated A549 treated with QCI; assay type: cell-based, human; details: 24 h, different QCI concentrations
Protocol: To capture human MCP-1, commercially available polyclonal antiserum goat anti-hMCP1-AF (R&D Systems, Minneapolis, USA) as capture antibody which specifically binds human MCP-1 was diluted in PBS to 250 ng/ml and immobilized in polystyrene 96-well microtitre plates overnight at 4° C. Thereafter, blocking occurred for 2 hours at room temperature with ELISA Blocker (Thermo Fisher Scientific, Waltham, USA). For preparation of the standard curve recombinant hMCP-1 was incubated with recombinant human Glutaminyl Cyclase (QC) in order to obtain hMCP-1 N1pE. The recombinant hMCP-1 N1pE standard peptide was serially diluted with ELISA Blocker from 1000 pg/ml down to 15.63 pg/ml and added to the wells in duplicate. Two wells filled with ELISA Blocker represent the standard curve value 0 pg/ml. After an incubation period of 2 hours at room temperature, plates were washed at least three times with TBS-T. For detection of hMCP-1 N1pE, the MCP-1 N1pE antibody clone 348-2C9 together with HRP-conjugated anti mouse antibody were both diluted in blocking buffer to final concentrations of 500 ng/ml. For detection of hMCP-1, the antibody mouse anti hMCP-1 (Peprotech, Hamburg, Germany) together with HRP-conjugated anti mouse antibody were also both diluted in blocking buffer to final concentrations of 500 ng/ml. The detection antibody/conjugate solutions were incubated for 2 hours at room temperature. Following several washes with TBS-T a colour reaction with commercially available HRP substrate TMB (SureBlue Reserve TMB Microwell Peroxidase Substrate (1-component), KPL, Gaithersburg, USA) was performed (30 minutes incubation at room temperature in the dark) and subsequently stopped by the addition of 1,2N H2SO4. Absorption at 450/540 nm was determined by a Tecan Sunrise plate reader.
A549 cells were stimulated for 24 h with 10 ng/ml TNFα and IL1β. Furthermore, QCI was applied in different concentrations to the cells. After 24 h cell culture supernatants were analyzed according to the protocol in Example 7.

[3] = tested on: RAW 264.7 cells; test: mMCP-1 N1pE/mMCP-1 ratio by ELISA in LPS stimulated RAW 264.7 treated with QCI; assay type: cell-based, mouse; details: RAW 264.7, 10 ng/ml LPS, 24 h, different QCI concentrations
Protocol: To capture mouse MCP-1, commercially available polyclonal antiserum rabbit anti mJE (Peprotech, Hamburg, Germany) as capture antibody which specifically binds mouse MCP-1 was diluted in PBS to 500 ng/ml and immobilized in polystyrene 96-well microtitre plates over 4-7 nights at 4° C. Thereafter, blocking occurred for 2 hours at room temperature with ELISA Blocker (Thermo Fisher Scientific, Waltham, USA). For preparation of the standard curve recombinant mMCP-1 was incubated with mouse Glutaminyl Cyclase (QC) in order to obtain mMCP-1 N1pE. The recombinant mMCP-1 N1pE standard peptide was serially diluted with ELISA Blocker from 1950 pg/ml down to 19.5 pg/ml and added to the wells in duplicate. Two wells filled with ELISA Blocker represent the standard curve value 0 pg/ml. After an incubation period of 2 hours at room temperature, plates were washed at least three times with TBS-T. For detection of mMCP-1 N1pE, the MCP-1 N1pE antibody clone 348-2C9 together with HRP-conjugated anti mouse antibody were both diluted in ELISA Blocker to final concentrations of 500 ng/ml. […] Absorption at 450/540 nm was determined by a Tecan Sunrise plate reader.
In order to analyse the effect of QCI on the ratio of mouse MCP-1 N1pE/mouse MCP-1, the mouse macrophage cell line RAW 264.7 was stimulated with LPS in the absence or presence of increasing concentrations of the QC inhibitor QCI. […] After 24 h cell culture supernatants were analyzed according to the protocol in Example 9. […]

Sequence of recombinant human QC (Q16769 29-361): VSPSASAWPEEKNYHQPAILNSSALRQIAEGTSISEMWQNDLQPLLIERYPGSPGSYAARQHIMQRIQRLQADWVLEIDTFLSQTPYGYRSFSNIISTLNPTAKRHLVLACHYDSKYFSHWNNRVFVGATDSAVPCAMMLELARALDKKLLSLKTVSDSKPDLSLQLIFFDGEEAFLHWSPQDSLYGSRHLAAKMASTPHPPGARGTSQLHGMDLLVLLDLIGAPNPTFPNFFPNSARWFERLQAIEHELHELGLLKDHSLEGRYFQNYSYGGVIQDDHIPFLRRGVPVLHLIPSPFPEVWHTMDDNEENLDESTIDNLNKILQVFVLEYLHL

SMILES: COc1ccc(NC(=S)NCCCn2ccnc2)cc1OC.Cl [QCI, 1-(3-(1H-imidazol-1-yl)propyl)-3-(3,4-dimethoxyphenyl)thiourea hydrochloride]
- pGlu-formation of Gln^1-MCP-1 by QC [1]: prevents pGlu-formation
- amount of hMCP-1 N1pE [2]: reduced by QCI in a concentration dependent manner
- amount of total hMCP-1 [2]: nearly unaffected
- ratio of hMCP-1 N1pE/hMCP-1 [2]: decreases with increasing inhibitor concentrations
- amount of mMCP-1 N1pE [3]: reduced by QCI in a concentration dependent manner
- amount of total mMCP-1 [3]: remains unaffected
- ratio of mMCP-1 N1pE/mMCP-1 [3]: decreases with increasing inhibitor concentrations
